Organism: Rattus norvegicus
Test: Open TG-GATES - Regimen: Daily Repeat
Assay type: toxicity, organism-based, Sprague-Dawley
Parameters: regimen Daily Repeat, gender Male, age 6 weeks
Settings: in vivo, po, 0 mg/kg, route gavage, dose level Control; for APTT / Bas / Eos / Fbg / Hb / Ht / Lym / MCH / MCHC / MCV / Mono / Neu / PT / Plat / RBC / Ret / WBC: tissue Blood; for KIDNEY_L / KIDNEY_R / KIDNEY_TOTAL: tissue Kidney; for LIVER: tissue Liver; for A/G / ALP / ALT / AST / BUN / CRE / Ca / Cl / DBIL / GLC / IP / K / LDH / Na / PL / RALB / TBIL / TC / TG / TP / gamma-GTP: tissue Plasma

## CCOC(=O)C(C)(C)Oc1ccc(Cl)cc1 [CLOFIBRATE]
72 h, time 3 day
  TERMINAL_BW: 239.8 g
  APTT: 20.7 s
  Bas: 0%
  Eos: 1%
  Fbg: 221 mg/dL
  Hb: 13.8 g/dL
  Ht: 39.5%
  Lym: 75%
  MCH: 21.3 pg
  MCHC: 34.9%
  MCV: 61.1 fL
  Mono: 3.2%
  Neu: 20.2%
  PT: 12.2 s
  Plat: 124.2 x10_4/uL
  RBC: 646.2 x10_4/ul
  Ret: 5.4%
  WBC: 98 x10_2/uL
  KIDNEY_L: 1 g
  KIDNEY_R: 1.1 g
  KIDNEY_TOTAL: 2.1 g
  LIVER: 12 g
  A/G: 1.6
  ALP: 881.8 IU/L
  ALT: 37.4 IU/L
  AST: 68 IU/L
  BUN: 14 mg/dL
  CRE: 0.4 mg/dL
  Ca: 11.1 mg/dL
  Cl: 102 meq/L
  DBIL: 0.088 mg/dL
  GLC: 194.2 mg/dL
  IP: 7 mg/dL
  K: 4.1 meq/L
  LDH: 230.6 IU/L
  Na: 140.6 meq/L
  PL: 162.4 mg/dL
  RALB: 3.5 g/dL
  TBIL: 0.1 mg/dL
  TC: 78 mg/dL
  TG: 137.2 mg/dL
  TP: 5.6 g/dL
  gamma-GTP: 1.2 IU/L
[…], time 7 day
  TERMINAL_BW: 268.6 g
  APTT: 20.7 s
  Bas: 0%
  Eos: 0.8%
  Fbg: 238 mg/dL
  Hb: 14.4 g/dL
  Ht: 41%
  Lym: 81.6%
  MCH: 21.4 pg
  MCHC: 35.2%
  MCV: 60.8 fL
  Mono: 2.6%
  Neu: 14.6%
  PT: 11.8 s
  Plat: 118.2 x10_4/uL
  RBC: 675.8 x10_4/ul
  Ret: 5.1%
  WBC: 104.1 x10_2/uL
  KIDNEY_L: 1.1 g
  KIDNEY_R: 1.1 g
  KIDNEY_TOTAL: 2.2 g
  LIVER: 12.5 g
  A/G: 1.6
  ALP: 994.8 IU/L
  ALT: 33.8 IU/L
  AST: 64.6 IU/L
  BUN: 16.6 mg/dL
  CRE: 0.4 mg/dL
  Ca: 10.5 mg/dL
  Cl: 102.2 meq/L
  DBIL: 0.098 mg/dL
  GLC: 213.2 mg/dL
  IP: 7.2 mg/dL
  K: 3.8 meq/L
  LDH: 192.2 IU/L
  Na: 138.8 meq/L
  PL: 144.8 mg/dL
  RALB: 3.6 g/dL
  TBIL: 0.2 mg/dL
  TC: 70.2 mg/dL
  TG: 122 mg/dL
  TP: 5.8 g/dL
  gamma-GTP: 0.6 IU/L
[…], time 14 day
  TERMINAL_BW: 332 g
  APTT: 19 s
  Bas: 0%
  Eos: 0.8%
  Fbg: 227.2 mg/dL
  Hb: 14.3 g/dL
  Ht: 41.2%
  Lym: 80.4%
  MCH: 20.3 pg
  MCHC: 34.6%
  MCV: 58.5 fL
  Mono: 3%
  Neu: 15%
  PT: 12.3 s
  Plat: 118.5 x10_4/uL
  RBC: 704.8 x10_4/ul
  Ret: 4.4%
  WBC: 137.8 x10_2/uL
  KIDNEY_L: 1.3 g
  KIDNEY_R: 1.3 g
  KIDNEY_TOTAL: 2.6 g
  LIVER: 14.9 g
  A/G: 1.3
  ALP: 852.2 IU/L
  ALT: 37.4 IU/L
  AST: 62 IU/L
  BUN: 16.2 mg/dL
  CRE: 0.4 mg/dL
  Ca: 10.6 mg/dL
  Cl: 101 meq/L
  DBIL: 0.082 mg/dL
  GLC: 209.4 mg/dL
  IP: 7 mg/dL
  K: 3.8 meq/L
  LDH: 155 IU/L
  Na: 140.4 meq/L
  PL: 148 mg/dL
  RALB: 3.4 g/dL
  TBIL: 0.1 mg/dL
  TC: 74.2 mg/dL
  TG: 118.4 mg/dL
  TP: 5.9 g/dL
  gamma-GTP: 0.8 IU/L
[…], time 28 day
  TERMINAL_BW: 392.8 g
  APTT: 21.1 s
  Bas: 0%
  Eos: 1%
  Fbg: 219.4 mg/dL
  Hb: 15.2 g/dL
  Ht: 43.2%
  Lym: 81.4%
  MCH: 19.3 pg
  MCHC: 35.3%
  MCV: 54.9 fL
  Mono: 2.6%
  Neu: 14.4%
  PT: 12 s
  Plat: 119.8 x10_4/uL
  RBC: 786.6 x10_4/ul
  Ret: 2.1%
  WBC: 108.2 x10_2/uL
  KIDNEY_L: 1.4 g
  KIDNEY_R: 1.4 g
  KIDNEY_TOTAL: 2.8 g
  LIVER: 16 g
  A/G: 1.4
  ALP: 622.2 IU/L
  ALT: 31.2 IU/L
  AST: 57.4 IU/L
  BUN: 15.2 mg/dL
  CRE: 0.4 mg/dL
  Ca: 10.4 mg/dL
  Cl: 102.6 meq/L
  DBIL: 0.08 mg/dL
  GLC: 207.2 mg/dL
  IP: 5.9 mg/dL
  K: 3.8 meq/L
  LDH: 154.6 IU/L
  Na: 140.8 meq/L
  PL: 145.6 mg/dL
  RALB: 3.5 g/dL
  TBIL: 0.1 mg/dL
  TC: 66.8 mg/dL
  TG: 124.4 mg/dL
  TP: 6.1 g/dL
  gamma-GTP: 0.8 IU/L
